The values that follow come from ChEMBL document CHEMBL1154631 (Bioorg Med Chem Lett, 2009).

Each structure is given as a SMILES string.

One experiment addresses T1, Adenosine receptor A1 (Homo sapiens, UniProt P30542).
T1 sequence (P30542 whole entry): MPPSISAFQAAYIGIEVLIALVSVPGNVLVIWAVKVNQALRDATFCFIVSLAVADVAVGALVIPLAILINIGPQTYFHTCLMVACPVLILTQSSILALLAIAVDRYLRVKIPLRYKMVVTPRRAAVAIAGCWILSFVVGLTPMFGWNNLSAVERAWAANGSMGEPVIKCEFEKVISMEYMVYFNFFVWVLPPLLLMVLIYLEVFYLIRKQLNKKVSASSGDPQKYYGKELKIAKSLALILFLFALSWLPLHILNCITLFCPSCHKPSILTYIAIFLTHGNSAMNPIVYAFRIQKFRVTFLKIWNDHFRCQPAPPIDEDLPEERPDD
Briefly: Binding affinity to adenosine receptor A1.

For the next experiment, the target named is Mu-type opioid receptor (Homo sapiens, UniProt P35372).
Chain of Mu-type opioid receptor (P35372 whole entry): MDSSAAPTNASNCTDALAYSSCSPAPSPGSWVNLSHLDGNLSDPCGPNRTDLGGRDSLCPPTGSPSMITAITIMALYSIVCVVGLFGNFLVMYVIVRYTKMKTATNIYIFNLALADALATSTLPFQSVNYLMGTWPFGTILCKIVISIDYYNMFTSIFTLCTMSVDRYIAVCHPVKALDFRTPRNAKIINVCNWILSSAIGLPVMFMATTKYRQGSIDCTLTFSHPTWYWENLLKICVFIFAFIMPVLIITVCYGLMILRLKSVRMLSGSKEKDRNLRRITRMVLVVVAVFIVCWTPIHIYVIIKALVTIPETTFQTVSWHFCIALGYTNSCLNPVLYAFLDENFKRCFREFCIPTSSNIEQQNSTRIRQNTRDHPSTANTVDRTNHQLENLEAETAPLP

For orientation: Ki means the dissociation constant of the complex between target and ligand, obtained from inhibition or displacement. A low value points to tighter binding. At Adenosine receptor A1, `C=CCN1CC[C@]23c4c5ccc(O)c4O[C@H]2C(=O)CC[C@@]3(O)[C@H]1C5` [NALOXONE] had a Ki greater than 50 µM. As to `C[C@@H](NC(=O)[C@@H](N)Cc1ccc(O)cc1)C(=O)NCC(=O)N(C)[C@@H](Cc1ccccc1)C(=O)NCCO` [DAMGO], the Ki at Adenosine receptor A1 is greater than 100 µM.

On Mu-type opioid receptor, `CCCn1c(=O)c2[nH]c(C3CCCC3)nc2n(CCC)c1=O` [1,3-DIPROPYL-8-CYCLOPENTYLXANTHINE [DPCPX]] yielded a Ki greater than 100 µM.
